Laboratory results from patent US11813275B2, “Pharmaceutical composition, methods for treating and uses thereof” (Boehringer Ingelheim International GmbH, priority 2013, dated 2023).
Entries after “also recorded” stand apart in the source; their conditions may differ.

Assays:
patients with T1D = assay: Blood pressure, arterial stiffness, HRV and adrenergic mediators in normotensive T1D patients under clamped euglycemia and hyperglycemia; type: in vivo, human
Experimental: Blood pressure, arterial stiffness, heart rate variability (HRV) and circulating adrenergic mediators were measured during clamped euglycemia and hyperglycemia in 40 normotensive patients with T1D. Studies were repeated after 8 weeks of empagliflozin (25 mg daily).
Augmentation index (Alx) for the radial and carotid arteries as well as a derived aortic Alx and carotid, radial and femoral pulse wave velocities (PWV) are measured for assessment of arterial stiffness using a SphygmoCor® System (AtCor Medical Inc., Itasca, Ill.).

ALDH-2 = assay: Liver ALDH-2 activity; type: in vivo, Wistar rats; conditions: STZ diabetic rats, 7 weeks of treatment
Experimental: (§1) Type I diabetes in Wistar rats (8 weeks old, 250-300 g) are induced by a single i.v. injection of STZ (60 mg/kg). The blood glucose level is measured 3 days after STZ injection (to test whether diabetes was induced) and on the day of sacrifice. One week after injection empagliflozin (SGLT2-i) was administered with drinking water for additional 7 weeks (10 and 30 mg/kg/d p.o.).

[1] = test system: leukocyte-derived reactive oxygen species (ROS) in blood; assay: PDBu/zymosan A-stimulated chemiluminescence, oxidative burst in blood; type: in vivo, Wistar rats; conditions: PDBu or zymosan A stimulation; STZ diabetic rats, 7 weeks, low (10 mg/kg) or high (30 mg/kg) dose
Experimental: as §1
FIGS. 3-9: Quantification of reactive oxygen species of (ROS) from leukocyte upon stimulation with zymosan A (ZymA). After 7 weeks of treatment, ROS production in blood is reduced either with the low or high dose of empagliflozin to level close to none diabetic animal.

isolated aortic rings = assay: Isometric tension recordings of isolated aortic rings (vasorelaxation); type: in vivo, Wistar rats
Experimental: as §1
FIG. 2: A: Endothelial dependant vasorelaxation. […] B: Endothelial independent vasorelaxation obtain with glyceryl trinitrate (GTN) a NO donor.

[2] = test system: superoxide formation in aortic vessels; assay: DHE staining of aortic cryosections (vascular superoxide formation); type: in vivo, Wistar rats; conditions: STZ diabetic rats, 7 weeks of treatment
Experimental: as §1

[3] = test system: STZ-induced diabetes mellitus (Type I) in rat; assay: Blood glucose and weight gain in STZ-induced type I diabetic rats; type: in vivo, Wistar rats; conditions: 10 and 30 mg/kg/d p.o. in drinking water for 7 weeks
Experimental: as §1

aortic wall = assay: Aortic wall thickness and collagen content by sirius red staining; type: in vivo, Wistar rats; conditions: STZ diabetic rats
Experimental: Aortic wall thickness and collagen content were also measured microscopically after sirius red staining. Aortic segments were fixed in parafomaldehyde (4%) and paraffin-embedded. Sirius red staining for vascular fibrosis was performed with paraffin-embedded samples of aortic tissue upon de-paraffination. Afterwards the nuclei were prestained with hemalum. Then samples were stained for 1 hour in 0.1% with Sirius red solution containing saturated picric acid (1.2%). Finally, tissue samples were dehydrated with 70%, 96% and 100% isopropanol and coverslipped with a solution of polymers in xylene. 60-70 measurements were made per sample, n=6-7 animals/groups.
FIGS. 16A and 16B: Microscopic determination of aortic wall thickness and collagen content by sirius red staining of aortic paraffinated sections. Quantification (FIG. 16A) and representative microscope images (FIG. 16B).

NADPH oxidase = NADPH oxidase activity in cardiac tissue; type: in vivo, Wistar rats; conditions: STZ diabetic rats, 7 weeks of treatment
Experimental: as §1

[4] = Serum levels of insulin and interferon-gamma in STZ diabetic rats; type: in vivo, Wistar rats; conditions: 7 weeks of treatment
Experimental: as §1

endothelial independent vasorelaxation with GTN: effect on smooth muscle cells (isolated aortic rings; isolated aortic rings after 7 weeks of treatment, glyceryl trinitrate as NO donor): absence of deleterious effect
Compound: OC[C@H]1O[C@@H](c2ccc(Cl)c(Cc3ccc(O[C@H]4CCOC4)cc3)c2)[C@H](O)[C@@H](O)[C@@H]1O [empagliflozin, 1-chloro-4-(β-D-glucopyranos-1-yl)-2-[4-((S)-tetrahydrofuran-3-yloxy)-benzyl]-benzene]
carotid-radial pulse wave velocity (patients with T1D; both glycemic conditions, 8 weeks of 25 mg daily, p≤0.0001): decreased significantly
systolic blood pressure (patients with T1D; clamped euglycemia, after 8 weeks of 25 mg daily, before treatment 111±9, p=0.0187): 109±9 mmHg
augmentation index, aortic (derived) (patients with T1D; clamped euglycemia, after 8 weeks of 25 mg daily, before treatment +0.1±13.4, p<0.0001): −6.2±14.3%
augmentation index, carotid (patients with T1D; clamped euglycemia, after 8 weeks of 25 mg daily, before treatment +1.3±17.0, p<0.0001): −5.7±17.0%
augmentation index, radial (patients with T1D; clamped euglycemia, after 8 weeks of 25 mg daily, before treatment −52±16, p<0.0001): −57±17%
blood pressure effects (patients with T1D; clamped hyperglycemia, 8 weeks of 25 mg daily): not significant
carotid-femoral pulse wave velocity (patients with T1D; clamped hyperglycemia, after 8 weeks of 25 mg daily, before treatment 5.7±1.1, p=0.0017): 5.2±0.9 m/s
arterial stiffness (overall conclusion) (patients with T1D; patients with uncomplicated T1D, 8 weeks of 25 mg daily): reduces arterial stiffness
ALDH-2 activity (liver) (ALDH-2): partly restored
oxidative stress in blood / ROS production from leukocytes [1]: reduced oxidative stress
endothelial function (endothelial dependent vasorelaxation) (isolated aortic rings; isolated aortic rings of STZ diabetic rats after 7 weeks of treatment): normalization of endothelial function; also recorded: improvement of endothelial function
oxidative stress / superoxide formation in aortic vessels [2]: reduced oxidative stress
blood glucose levels [3]: distinct reduction
aortic collagen content (aortic wall): normalized
aortic wall thickness (aortic wall): normalized
NADPH oxidase activity in the cardiac tissue (NADPH oxidase): diminished
insulin level ([4]; STZ diabetic rats): restore insulin level
interferon γ (marker of inflammation) ([4]; elevation in STZ diabetic rats): highly diminished or suppressed
